# Laboratory results as given in a melting point compilation (Tetko et al.; mined from patent text by program, amines drawn as free bases though some values may be those of a salt).
row,melting point [°C],Structure (SMILES)
1,310,N#Cc1c(Cl)c2cccnc2[nH]c1=O
2,184 to 185,CCC(=NN=C(c1ccc(Cl)cc1)c1ccc(OS(C)(=O)=O)cc1)NN=C(c1ccc(Cl)cc1)c1ccc(OS(C)(=O)=O)cc1
3,111 to 113,CCC1(CO)CCCN2CCC3=c4ccccc4=NC3=C21 (stereo not given)
4,167 to 169,CON(C)C(=O)Nc1c(C(=O)c2cccc(Cl)c2)[nH]c2cc(Cl)ccc12
5,230 to 231,O=C1Nc2ccccc2N2C(=O)OCC12 (stereo not given)
6,167 to 168,c1ccc(C(c2ccccc2)N2CC(n3ccnn3)C2)cc1
7,258 to 260,O=Cc1ccccc1-c1ccc(C(=O)Nc2ccc3cccnc3c2)cc1
8,83 to 84,COC(=O)c1cnoc1-c1ccc(Cl)cc1Cl
9,118 to 119,CCCCCCOc1ccc(NC(=O)c2cnc(C(=O)OC)c(OC)c2)cc1
10,146 to 148,Cc1cccc(-n2nc3c(c2OS(=O)(=O)C(F)(F)F)CCC3)n1
11,82 to 83,Clc1ncn(COc2ccc(Oc3ccccc3)cc2)c1Cl
12,186 to 188,N#Cc1c2c(c3c(c1N1CCCCC1)Cc1ccccc1-3)Cc1ccccc1-2
13,265 to 266,O=C1Nc2cccc(-c3cccc(NC(=O)c4cccc([N+](=O)[O-])c4)c3)c2/C1=C/c1ccc[nH]1
14,155 to 156,CC(=O)OCc1cccc(C(C)C)c1NC(=O)CC1c2ccccc2Oc2ccccc21
15,92 to 95,CC1C(=O)Oc2c(Oc3ccccc3Cl)cccc21 (stereo not given)
16,122,CCCNCC(O)COc1ccccc1CCCc1cccc2c1CC(=O)N2 (stereo not given)
17,157 to 158,CNC(=O)CC1CN=C(c2cc3cc(Oc4ccc(CS(C)(=O)=O)nc4)cc(OC4CCOCC4)c3[nH]2)S1 (stereo not given)
18,> 260,COc1cccc(-n2c(=O)c3c(c4cccnc42)OCC3)c1
19,291 to 292,Cc1[nH]c2ccccc2c1C=C1SC(=S)N(CC(=O)O)C1=O
20,117 to 120,O=C(NCCC1CC1)c1ccc(N2CCN(C(=S)c3ccccc3C(F)(F)F)CC2)nn1
21,73 to 74,CCOC(=O)C(=O)N(c1ccccc1[N+](=O)[O-])C(C)(C)C
22,180 to 181,O=C(Nc1ccc(Oc2ccnc(N3CCCC(O)C3)n2)c2ccccc12)c1cc(F)cc(N2CCOCC2)c1 (stereo not given)
23,196 to 198,COc1cccc(CNC(=O)c2nc3ccc(F)c(OCCc4ccc(-n5cn[nH]c5=O)cc4)c3c(=O)[nH]2)c1
24,84 to 85,CCOP(=O)(COCC(O)COn1cnc2c(N)ncnc21)OCC (stereo not given)

row,melting point [°C],Structure (SMILES)
1,237,Cn1c([N+](=O)[O-])cnc1-c1nc2ccccc2n1CCN1CCOCC1
2,95 to 96,O=C1c2cccc3cccc(c23)C(=O)N1CCCCCCBr
3,66 to 67,Cc1cccc(C(=O)Cc2ccnc(F)c2)c1
4,128 to 131,CCCCCCCCCCCCCCCCOc1ccc(OCC(=O)Nc2ccccc2CO)cc1
5,181 to 184,CCCCN(CCCC)c1ccc(C=CC=CC2=C(C#N)C(=C(C#N)C#N)OC2(C)C)c(OC)c1
6,172 to 175,Cc1cc(-n2cnnn2)cc(I)c1N
7,158 to 159,"CC(=O)NCC1CC(c2cc(F)c(N3CCN(C(=O)C4COc5ccccc5O4)CC3)c(F)c2)=NO1 (single isomer, unassigned; (-))"
8,172,N#Cc1cccc(-c2cncc(OC3SCC(O)C(O)C3O)c2)c1 (stereo not given)
9,127,C=CCOc1ccnc2c([N+](=O)[O-])cccc12
10,124 to 125,Cc1ccc2ccc(C)c(O)c2c1
11,150 to 151,CC(C)Cc1cc(OCCc2ccsc2)c2[nH]nc(Nc3nccs3)c2c1
12,175 to 178,CCOC(=O)C1=C(C)NC(c2csc(C)n2)=NC1c1cccc(O)c1 (stereo not given)
13,172 to 173,N#Cc1cccc(CSc2nnc(-c3ccc4[nH]ncc4c3)o2)c1
14,87.5,CCOC(=O)c1cc(C#N)cc(CO)n1
15,190 to 191,O=C(O)CCc1cc(OCCCc2cn(-c3ccc(C(F)(F)F)cn3)nc2C2CCCCC2)nn1C1CCCCC1
16,132 to 134,COCOc1c(NC(=O)NN)cc(OC)cc1C(C)(C)C
17,158 to 160,O=C(NC1=Cc2cncn2CN=C1)c1ccccc1
18,144 to 146,CC(c1cccc(C#N)n1)C(O)(Cn1cncn1)c1ccc(F)cc1F (stereo not given)
19,102 to 108,CCOCCOc1ccc(-c2ccc3c(c2)C=C(C(=O)OC)CCN3)cc1
20,244 to 246,Oc1cc2c(cc1-c1nc3cc(Cl)ccc3o1)oc1ccccc12
21,100 to 101,CCOC(=O)C(=O)Nc1c([N+](=O)[O-])cc(Cl)cc1C(F)(F)F
22,179,CC(=O)c1ccc2c(c1)Sc1cc(C(C)=O)ccc1O2
23,148,CN(C)CCCC(=O)OC[C@@H]1CC(c2ccc(-c3ccc(N4C[C@H](Cn5ccnn5)OC4=O)cc3F)cn2)=NO1
24,140 to 142,COc1ccc2cc(-c3ccc(OCC(O)CNC(C)C)cc3)n(C)c(=O)c2c1 (stereo not given)

row,melting point [°C],Structure (SMILES)
1,277 to 278,O=C(O)c1cn(C2CC2)c2cc(Cl)c(F)c(Cl)c2c1=O
2,164 to 165,O=S(=O)(Nc1cccc2cc(-c3nccs3)[nH]c12)c1cccs1
3,241 to 242,Cc1cc(C(=O)NC2CC2)ccc1N1CCN(Cc2cc(C)c3c(c2)NC(=O)C(C)O3)CC1 (stereo not given)
4,194 to 195,O=C1C(=Cc2ccc(O)c(CO)c2)Cc2ccccc21
5,56 to 58,COc1nc(C)c(C)cc1N
6,110 to 111,Fc1ccc(N2CCN(CCCc3[nH]nc4c3CSCC4)CC2)cc1
7,222 to 224,CCCN(C)c1ncc2cc(-c3ccc(C(=O)N4CCN(C)CC4)cc3)[nH]c2n1
8,150 to 151,CC(=O)O[C@@H]1C(=O)N[C@@H]1c1ccccc1 (relative stereo)
9,267 to 269,Cn1ncc(C(=O)N2CCOCC2)c1C(=O)Nc1ccn2nc(-c3cccnc3F)nc2c1
10,169 to 171,O=[N+]([O-])c1ccc(F)cc1CS(=O)(=O)c1ccccc1
11,121 to 123,Cc1cc(C)c(C(=O)c2ccccc2)c(OCC(O)CNC(C)C)c1C (stereo not given)
12,44 to 47,COc1c2ccccc2nc2c1c(C)nn2-c1ccccn1
13,145,NC(=O)n1nc(-c2ccco2)cc1N
14,144 to 145,CCC(C)n1ncn(-c2ccc(N3CCN(c4ccc(O)cc4)CC3)cn2)c1=O (stereo not given)
15,120 to 123,Cc1cc(C)cc(-c2nc(N)sc2-c2ccnc(NC(=O)c3ccccc3)c2)c1
16,142 to 146,NS(=O)(=O)c1cscn1
17,268,Clc1ccc(C#Cc2c3ccccc3c(C#Cc3ccc(Cl)cc3)c3ccccc23)cc1
18,104 to 107,Cc1ccc(N)c2nccc(Cl)c12
19,281 to 284,CC(C)(C)c1ccc2c(c1)-c1c(c(C(=O)C(C#N)C(=O)NCc3ccccc3)nn1-c1ccccc1)CO2 (stereo not given)
20,117 to 120,CC(O)CN(Oc1ccccc1C1CCCCC1)C1CCCC(C2CNC(=O)N2)C1 (stereo not given)
21,184 to 185,O=C1c2ccccc2C(=O)N1CC(=O)N1Cc2ccccc2Oc2ccc(Cl)cc21
22,78 to 81,CC(c1ccc(OCCO)cc1)(c1ccc(OCCO)cc1)c1ccc(OCCO)cc1
23,26 to 28,COc1cc(CO)cc(OC)c1OCCO
24,159,Nc1nc(Cl)cc(CF)n1

row,melting point [°C],Structure (SMILES)
1,90,Cc1cc2c(s1)Nc1ccccc1N=C2N1CCN[C@@H](CO)C1
2,130,Cc1ccc(C2=NNC(=O)CC2)c(OCC(O)CNC(C)(C)C)c1 (stereo not given)
3,133 to 134,CC(=O)OCc1cc2c(C(O)CN(Cc3ccccc3)C(C)(C)C)ccc(OCc3ccccc3)c2[nH]1 (stereo not given)
4,135 to 138,O=C(O)CCCCc1cc(O)c(O)c([N+](=O)[O-])c1
5,189 to 190,Clc1ccc(Nc2nc3ccccc3c3[nH]c(C4CCCC4)nc23)cc1
6,216 to 218,CCS(=O)(=O)Nc1cc2occc(=O)c2cc1Oc1ccccc1
7,169,O=C(O)C=Nc1cccc(F)c1C(=O)O
8,136 to 137,CCN1CCCC1CNC(=O)c1cc(S(=O)(=O)NC)cc2c1OCCO2 (stereo not given)
9,71.5 to 72.5,CC(C)(C)C(=O)NCCCOc1ccncc1
10,188 to 190,CC1=Cc2ccc(Cl)cc2C(c2ccc([N+](=O)[O-])c(C)c2)=NN1C(=O)Oc1ccccc1
11,188 to 189,O=C1CN2Cc3cc(OCCCCCCn4ccnc4)ccc3N=C2N1
12,131 to 135,CCOc1ccc(NC(=O)CC(Cc2cccc3ccccc23)C(=O)O)cc1 (stereo not given)
13,196 to 197,Cc1nc(Cl)c(-c2ccc(Cl)cc2)c(NS(=O)(=O)c2ccc(Cl)cc2)n1
14,86 to 87,COC(CCC(N)=C(SC)S(C)=O)OC (stereo not given)
15,185 to 187,Cc1ccc([N+](=O)[O-])c(C(=O)N[C@@H]2c3cc(OC(F)(F)F)ccc3OC(C)(C)[C@H]2O)c1
16,> 300,O=C1C=c2c(c3c4ccccc4oc3c3[nH]c4ccccc4c23)=N1
17,47 to 51,CCOc1ccc(C2=NN(CCCCCCBr)C(=O)[C@H]3CCCC[C@@H]23)cc1OCC (relative stereo)
18,78 to 79,CCCCCCCCCCCCCCCCNC(=O)NCCCN(C)C
19,325 to 329,Cc1cc2n[nH]c(=O)n2nc1-c1ccc(C(N)=S)cc1
20,90 to 91,Cn1cc(Oc2ccc(Cl)cc2)c(=O)c(-c2cccc(C(F)(F)F)c2)c1
21,122 to 125,CC(=O)Oc1nc(-c2ccc(C)cc2)sc1-c1ccccc1
22,166,Cn1cc(-c2ccccc2)c(=O)c(-c2ccc(Cl)c(Cl)c2)c1

row,Structure (SMILES),melting point [°C]
1,CN1CC=C(c2c[nH]c3ccc(NC(=S)NC(=O)c4ccccc4)cc23)CC1,182 to 184
2,COc1ccc(C2=CCN(Cc3ccccc3)CC2)cc1OC,94 to 96
3,O=C(CN1CC(c2ccc(Cl)cc2)CC1=O)N1CCNCC1 (stereo not given),148 to 150
4,NS(=O)(=O)c1ncccc1OCCF,122 to 123
5,C1CN2CCN3CCN(CCN1)P23,109 to 111
6,CN(C)C1(c2ccccc2)CCC(=CC(=O)NCc2ccccc2)CC1 (stereo not given),145 to 148
